Measured values reported in US11414454B2, “Compositions, methods, and systems for affinity-based protein identification and purification” (Auctus Biologies, Inc., priority 2017, dated 2022).
No end group written: not given here.

Legend:
[1] = molecular target: RPtag (large); experiment: Buffer additive screen, Kd by fluorescence anisotropy; type: binding, Thermoanaerobacter tengcongensis
Description: To determine reagent compatibility with the disclosed system, an additive screen was performed, wherein the Kd between RPtag (large) and 3 RPtag (small) peptides—native, Nd8Cd4, and Nd2p5ae18a—were tested in the presence of several common buffer additives (Table 3).

[2] = test system: RPtag(large); experiment: pH profile of Kd by fluorescence anisotropy; type: binding, Thermoanaerobacter tengcongensis; settings: buffers pH 1.5 to 13
Description: The Kds of Nd8,Cd4 for RPtag(large) was measured in the presence of buffers of different pHs ranging from 1.5 to 13.
For these experiments, Kds were measured by fluorescence anisotropy as described above in the following buffers, all at 100 mM with 0.005% Tween 20: glycine pH 1.5, glycine pH 2.0, glycine pH 3.0, acetate pH 4.5, 2-(N-morpholino)ethanesulfonic acid pH 6.0, tris pH 7.0, tris pH 7.5, tris pH 8.0, tris pH 8.5, borate pH 10.0, phosphate pH 11.5, phosphate pH 13.0.

[3] = molecular target: RPtag (large); experiment: Fluorescence anisotropy Kd of rhodamine labeled RPtag (small) peptides for RPtag (large); type: binding, Thermoanaerobacter tengcongensis
In short: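 N-terminally rhodamine-labeled RPtag small (50 nM or 1 nM) titrated with RPtag large in 50 mM Tris pH 8.0 with 0.005% Tween 20, 5 min to 1 h at room temperature; BSA served as non-specific binding control. Kd from fitting fluorescence anisotropy to a quadratic binding equation accounting for labeled peptide concentration.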

[4] = test system: immobilized RPtag(large) column; experiment: Native elution from immobilized RPtag(large) column (3 M NaCl binding, 3 M imidazole elution); design: species or system Thermoanaerobacter tengcongensis; settings: bound in 100 mM Tris pH 8.0, 3 M NaCl, 0.005% Tween20
Description: Because of the observed stabilizing character of NaCl and destabilizing character of imidazole on Nd8Cd4 binding, these reagents, among others, were incorporated into a novel buffering system for use with the disclosed proteins, peptides, systems, and methods. In particular, the effect of this novel buffer on binding of RPtag (small) Nd8Cd4 to an immobilized RPtag(large) column was studied. These experiments included eluting both (1) rhodamine labeled peptide and (2) N-terminally RPtag(small) Nd8Cd4 tagged with tagRFP from a column under native conditions. Generally, native conditions is taken to mean at or near biological conditions under which many proteins are folded, e.g. pH 4-9 at moderate temperature (4° C.-30° C.) in the absence of denaturants (e.g. guanidine hydrochloride, urea, SDS). This is in contrast to denaturing conditions, which generally rely on extreme pH (e.g. ≤2) denaturants, or high temperature to unfold proteins.
Briefly, columns, as described above, were first equilibrated with 10 mL 100 mM Tris pH 8.0, 3 M NaCl, 0.005% Tween20. Next, 1 mL of 10 uM rhodamine-tagged Nd8Cd4 or tagRFP containing an N-terminal RPtag (small) Nd8Cd4 tag was applied in the same buffer. The column was then washed with 10 mL of the same buffer. Finally, bound target molecules were eluted with 10 mL of 100 mM Tris pH 8.0, 3 M imidazole, 0.005% Tween20.

[5] = 100 mM Tris pH 8.0, 0.005% Tween 20, No Additive
[6] = N-terminal rhodamine tagged peptide, unlabeled RPtag (large), 50 mM Tris pH 8.0, 0.005% Tween 20, mean ± SE

| Sequence | Kd [1, 5] [nM] | Kd ([1]; BME (10%)) [nM] | Kd ([1]; CaCl2 (3M)) [nM] | Kd ([1]; DMSO (20%)) [nM] | Kd ([1]; DTT (100 mM)) [nM] | Kd ([1]; EtOH (20%)) [nM] | Kd ([1]; Gdn-HCl (6M)) [nM] | Kd ([1]; KCl (3M)) [nM] | Kd ([1]; MeOH (20%)) [nM] | Kd ([1]; MgCl2 (3M)) [nM] | Kd ([1]; MnSO4 (10 mM)) [nM] | Kd ([1]; NH4SO4 (3M)) [nM] | Kd ([1]; NaCl (3M)) [nM] | Kd ([1]; NiCl2 (100 mM)) [nM] | Kd ([1]; PG (50%)) [nM] | Kd ([1]; SDS (2%)) [nM] | Kd ([1]; TritonX-100 (2%)) [nM] | Kd ([1]; Tween20 (2%)) [nM] | Kd ([1]; acetone (20%)) [nM] | Kd ([1]; glycerol (20%)) [nM] | other results |
| --- | --- | --- | --- | --- | --- | --- | --- | --- | --- | --- | --- | --- | --- | --- | --- | --- | --- | --- | --- | --- | --- |
| PAELKLITK [Nd8, Cd4, PAELKLITK] | 14 | 740 | > 10000 | 140 | 33 | 733 | > 10000 | 0.066 | 34 | 240 | 160 | 2.8 | 0.15 | 42 | 4600 | > 10000 | 180 | 45 | 22 | 27 | increased affinity with kosmotropic salts NaCl and KCl ([1]; 3M salt versus no additive): > 100 fold; Kd ([1]; imidazole (3M)): > 10000 nM; Kd ([1]; ribose (3M)): 42 nM; Kd ([1]; sorbitol (3M)): 16 nM; Kd ([1]; urea (8M)): > 10000 nM; pH of relative maximum affinity [2]: ~8 pH; Kd [3, 6]: 14 ± 1 nM; Kd ([3]; N-terminal rhodamine tagged peptide, unlabeled RPtag (large), 50 mM Tris pH 8.0, 0.005% Tween 20, mean ± SE, listed as Nd8Cd4): ~14 nM; elution behaviour with 100 mM Tris pH 8.0, 3 M imidazole [4]: eluted as a tight band |
| KIANFIPAELKLITKANVQ [Nd2, p5a, e18a, KIANFIPAELKLITKANVQ] | 0.037 | 6.7 | 150 | 0.023 | 0.073 | 0.1 | > 10000 | 0.011 | 0.056 | 350 | 22 | 44 | < 0.001 | 2.2 | 49 | > 10000 | 0.046 | 4.7 | 0.019 | < 0.001 | Kd ([1]; imidazole (3M)): > 10000 nM; Kd ([1]; ribose (3M)): < 0.001 nM; Kd ([1]; sorbitol (3M)): < 0.001 nM; Kd ([1]; urea (8M)): > 10000 nM; pH of relative maximum affinity [2]: ~8 pH; Kd [3]: ~0.047 nM; Kd [3, 6]: 0.047 ± 0.018 nM; elution behaviour with 100 mM Tris pH 8.0, 3 M imidazole [4]: diffuse band |
